Measurements from patent US20240124539A1, “CROSSLINKED HELIX DIMER MIMICS OF SOS AND METHODS OF USING SAME” (NEW YORK UNIVERSITY, priority 2020, published 2024).
Positions of bridges follow the written chain, without caps; N, C: chain ends. Non-standard residues stand in square brackets, D forms with d. Residues, ends and D or L forms follow the SMILES beside them. Chains are numbered I, II in the order given. No end group written: not given here. dibenzylether crosslinker = scaffold alkylating both cysteine thiols (drawn in Scheme 1 and; hArg = N=C(N)NCCCC[C@H](N)C(=O)O; DZ = diazirine photocrosslinker

Assays:
[1] = molecular target: T1, wild-type His6-tagged H-Ras (1-166) pre-loaded with GDP (Homo sapiens, UniProt P01112); assay: Fluorescence polarization binding assay, wild-type H-Ras-GDP
T1 construct: wild-type and mutant His6-tagged H-Ras (1-166) pre-loaded with GDP; made in house; host or cells: Escherichia coli (BL21)
Description: GTP of the Ras-specific nucleotide exchange factor SOS. Cell 112, 685-695 (2003).

H358 cells = assay: Photoaffinity labeling with quantitative MS-based proteomics in H358 cells; format: cell-based, Homo sapiens; details: TMT abundance, negative control diazirine probe
Description: H358 cells were grown to 80-95% confluence in 10 cm plates with FBS-supplemented RPMI-1640. The growth medium was aspirated and the cells were washed with Dulbecco's phosphate-buffered saline (DPBS). The cells were then incubated with serum-free medium containing probes DZ2-CHC^Sos-5 (20 μM in RPMI-1640 with 0.4% DMSO, two replicates) or control probe CP-2-66 (20 μM in RPMI-1640 with 0.4% DMSO, four replicates) for 4 hours at 37° C. under an atmosphere of 5% CO2 before being irradiated under UV light (365 nm, 30 min, 4° C.). The cells were washed with DPBS, scraped and transferred to 1.5 mL Eppendorf tubes, pelleted, and stored at −80° C. until the next step.
Cell pellets were resuspended in 500 μL of DPBS and lysed by sonication (15 ms on, 40 ms off, 15% amplitude, 1 s total on×2). Protein concentrations were normalized (1-2 mg/mL; final volume of 500 μL with DPBS) using the Lowry Protein Assay (Pierce). To each sample was added solutions of tris((1-benzyl-4-triazolyl)methyl)amine (30 μl, 1.7 mM in DMSO/t-BuOH 1:4 v/v), tris(2-carboxyethyl)phosphine (10 μL, 50 mM), biotin-PEG3-azide (5 μL, 100 μM), and CuSO4 (10 μL, 50 mM) and the samples were shaken at room temperature for 1 hour. A cold MeOH/CHCI3 mixture (2.5 mL, 4:1 v/v) was added to each lysate, followed by 1 mL of cold DPBS. The resulting mixture was vortexed and centrifuged (4,700× g, 10 min, 4° C.). The organic and aqueous layers were aspirated, and the remaining protein disk was further washed via sonication in cold MeOH/CHCl3 solution (2 mL, 4:1) and pelleted by centrifugation (4,700× g, 10 min, 4° C.). The protein pellet was aspirated and combined with freshly prepared urea solution (500 μL, 6 M in DPBS) and a solution of SDS (with 10 μL of 10% w/v) by sonication. A freshly prepared 1:1 solution (50 μL) of TCEP (200 mM in DPBS) and K2CO3 (600 mM in DPBS) was added and the mixture was incubated for 30 min at 37° C. with shaking. A solution of freshly prepared iodoacetamide (70 μL, 400 mM in DPBS) was added and the mixture was incubated at RT in the absence of light. Each sample was combined with a solution of SDS (130 μL, 10% in DPBS w/v) followed by DPBS (5.5 mL) and incubated with pre-equilibrated streptavidin-agarose beads (100 μL of a 50% slurry; Pierce) for 1.5 hours at RT while rotating. The streptavidin beads were pelleted by centrifugation (750 g, 2 min, 4° C.) and sequentially washed with SDS solution (1×5 mL, 0.2% in DPBS), DPBS (2×5 mL), and triethylammonium bicarbonate buffer (1×5 mL, TEAB, 100 mM, pH 8.4). The beads were resuspended in TEAB (0.5 mL, 100 mM pH 8.5) and transferred into LoBind microcentrifuge tubes. The tube was washed once more with TEAB (0.5 mL, 100 mM pH 8.5) to ensure complete transfer of the beads, which were then pelleted by centrifugation (750× g, 2 min, 4° C. and the supernatant aspirated. Each sample of beads was combined with a solution of CaCl2 (2 μL, 100 mM) and a solution of sequencing-grade porcine trypsin (2 μg, Promega in 200 μL TEAB, 100 mM, pH 8.4), and incubated for 14 hours at 37° C.with shaking. The beads were pelleted by centrifugation (750× g, 2 min, 4° C.) and the supernatants were transferred to new
LoBind micro-centrifuge tubes. Each digested sample was TMT 10plex labeled (Thermo Fisher Scientific): for each sample a stock solution of TMT reagent (8 μL, 20 μg/μL) was added along with dry MS-grade acetonitrile (final acetonitrile concentration 30% v/v), followed by incubation at RT for 1 hour. The reaction was quenched by adding hydroxylamine (6 μL) and left to stand for 15 min, followed by the addition of formic acid (5 μL). Each TMT-labeled sample was dried via vacuum centrifugation, and the samples were combined by redissolving one sample in a solution of trifluoroacetic acid (TFA, 200 μL, 0.1% in water) and transferring the solution into each sample tube until all samples were redissolved. […]

H-Ras = molecular target: T2, H-Ras (Homo sapiens, UniProt P01112); assay: Photoaffinity labeling of purified H-Ras and tryptic digest MS; format: binding; details: 5 eq. probe, UV light, trypsin digest
T2 construct: Wild-type and mutant N-terminal His6-H-Ras (residues 1-166) in pProEx HTb expression vector; His6 (N, cleaved yes); made in house; host or cells: Escherichia coli (BL21)
Description: For each experiment, a sample of 250 μM diazirine-labeled CHD peptide was
Incubated samples were then photo-irradiated for 5 minutes at 24 °C. Photo-conjugated samples were then mixed with 1× SDS-PAGE loading buffer containing 5% 2-mercaptoethanol (200 μL final volume) and heated at 95° C. for 5 minutes. Heated samples were then separated via SDS-PAGE gel electrophoresis on a 1.0 mm 15% polyacrylamide gel. The resulting gel was stained with Coomassie Brilliant Dye and subsequently destained (40% MeOH/10% acetic acid/50% water).
In-gel tryptic digest was conducted with the In-Gel tryptic Digestion Kit (Thermo Scientific) according the manufacturer's instructions. Upon photoaffinity labeling, the conjugated band was isolated as a 1×1 mm segment for in-gel trypsin digest. The isolated gel band was then incubated with 200 μL of Coomassie destaining solution (25 mM ammonium bicarbonate in 1:1 ultrapure water:acetonitrile) for 30 minutes at 37 °C. After incubation, destaining buffer was removed, and the destaining step was repeated twice more. The destained gel band was treated with reducing buffer (25 mM of ammonium bicarbonate, 50 mM TCEP) for 10 minutes at 60° C. After discarding the reducing buffer, the band was treated with 200 μL of iodoacetamide alkylation solution (25 mM ammonium bicarbonate, 100 mM iodoacetamide) for 30 minutes at 37° C. while shaking in the dark. […]

## CC[C@H](C)[C@H](NC(=O)[C@H](Cc1ccccc1)NC(C)=O)C(=O)NCC(=O)N[C@@H](CCCNC(=N)N)C(=O)N[C@@H](CC(C)C)C(=O)N[C@@H](CSCc1ccc(COCc2ccc(CSC[C@H](NC(=O)[C@H](CC(C)C)NC(=O)[C@H](CCCNC(=N)N)NC(=O)[C@H](C)NC(=O)[C@H](CC(C)C)NC(=O)[C@H](CCC(=O)O)NC(=O)[C@H](CCCNC(=N)N)NC(=O)[C@H](CCC(=O)O)NC(=O)[C@H](CC(C)C)NC(=O)[C@H](CCC(=O)O)NC(=O)[C@H](CCCNC(=N)N)NC(=O)[C@H](CC(C)C)NC(=O)[C@H](CCCNC(=N)N)NC(=O)[C@H](Cc3c[nH]c4ccccc34)NC(=O)[C@H](C)NC(=O)[C@H](CC(C)C)NC(C)=O)C(N)=O)cc2)cc1)C(=O)N[C@H](C(=O)N[C@@H](CC(N)=O)C(=O)N[C@H](C(=O)N[C@@H](CC(C)C)C(=O)N[C@@H](CCCCN)C(=O)N[C@@H](CC(C)C)C(=O)N[C@@H](CCCNC(=N)N)C(=O)N[C@@H](CCC(=O)O)C(=O)NCC(=O)N[C@@H](CC(N)=O)C(N)=O)[C@@H](C)CC)[C@@H](C)O [CHC^Sos-1] (HELM PEPTIDE1{[ac].F.I.G.R.L.C.T.N.I.L.K.L.R.E.G.N.[am]}|PEPTIDE2{[ac].L.A.W.R.L.R.E.L.E.R.E.L.A.R.L.C.[am]}|CHEM1{[c1cc(C[*:1])ccc1COCc1ccc(C[*:2])cc1]}$PEPTIDE1,CHEM1,7:R3-1:R1|PEPTIDE2,CHEM1,17:R3-1:R2$$$V2.0)
[1]
  Kd: 32 ± 6 µM

## C#CCCC1(CCC(=O)NC)N=N1 [CP-266]
H358 cells; enriched protein AHSA1 (O95433)
  Average Abundance CP-266: 157
H358 cells; enriched protein EEF1D (P29692)
  Average Abundance CP-266: 614
H358 cells; enriched protein HNRNPR (O43390)
  Average Abundance CP-266: 1745
H358 cells; enriched protein PMVK (Q15126)
  Average Abundance CP-266: 177
H358 cells; enriched protein PPP4C (P60510)
  Average Abundance CP-266: 60
H358 cells; enriched protein STK26 (Q9P289)
  Average Abundance CP-266: 170

## DZ1-CHC^Sos-5: CHD^Sos-5 with diazirine photocrosslinker at N-terminus of αI helix: DZ-GLAWRLRELERELARLC-NH2 (chain 1 WIGRLCTEI[hArg]RLRNGN; chain 2 {DZ}-GLAWRLRELERELARLC-NH2; linker I:6-II:17 via dibenzylether crosslinker)
H-Ras
  Ras binding site by photo-crosslinking: photo-crosslinked with the Ras hinge region
